Laboratory results as given in patent US7166625B2, “Method for treating fibrotic diseases and other indications” (Alteon, Inc., priority 2000, dated 2007).
Structures can show the parent of a compound that is named as a salt.

Columns and labels:
[1] = literature series of mainly imidazolium compounds; cited from earlier work
dog model for diabetes = assay: Dog model for diabetes, ventricular elasticity; assay type: in vivo
Text: (§1) Cardiovascular risk correlates more closely with the systolic and the pulse pressure than with the diastolic pressure. In diabetic patients, the cardiovascular risk profile of diabetic patients is strongly correlated to duration of diabetes, glycemic control and blood pressure. Structural matrix proteins contribute to the function of vessels and the heart, and changes in the physical behavior of cardiovascular walls are believed to be important determinants of circulatory function. In elderly individuals, the loss of compliance in the aorta leads to isolated systolic hypertension, which in turn expands the arterial wall and thereby diminishes the dynamic range of elasticity. […] Treatment with 3-[2-phenyl-2-oxoethyl]-4,5-dimethyl-thiazolium salt lead to a reduction in the mass of collagen in cardiovascular tissues.

[2] = system: rodents, canines and primates; assay: In vivo studies of vascular stiffening and collagen mass in cardiovascular tissues
Text: as §1

Rats = assay: Rat myocardial infarct after ligation of the left anterior descending coronary artery; assay type: in vivo; settings: 10 mg/kg daily intraperitoneal, 30 days before and 14 days after coronary ligation
Method: Rats received a daily intraperitoneal dose of 10 mg/kg 3-[2-phenyl-2-oxoethyl]-4,5-dimethyl-thiazolium salt (compound A) (n=14) or placebo (n=15) for 30 days. The animals then underwent a thoracotomy and the left anterior descending coronary artery ligated. The chest was then closed and the animals allowed to recover for 14 days while continuing to be treated with compound A or placebo. The animals were then sacrificed and the hearts removed for histological examination. The weight of the infarcted tissue was 0.16±0.04 g for the placebo treated animals compared to 0.11±0.05 g for the compound A treated animals (p=0.04).

TGFbeta = assay: In situ hybridization studies, TGFbeta expression
Text: as §1

Type IV collagen = assay: In situ hybridization studies, Type IV collagen expression
Text: as §1

[3] = system: elderly patients with pulse pressures greater than 60 mm Hg; assay: Phase IIa clinical trial; assay type: in vivo, human
Text: When the heart pumps blood into the vascular system, the ability of the arteries to expand helps to push blood through the body. When arteries become stiff, as they do in the natural process of aging, the ability of the arteries to expand is diminished and also has consequences for the heart. The heart has to work harder to pump the blood into the stiff arteries, and eventually hypertrophies (enlarges in size) to accomplish this. A hypertrophied heart is an inefficient pump, and is one of the disorders that leads to congestive heart failure. […] The potential clinical benefit of this is to lessen the effort that the heart must expend to push blood throughout the body. The effect is also believed to contribute to preventing hypertrophy and subsequent inefficiency of the heart, which inefficiency would contribute to congestive heart failure.
Atherosclerosis is a disease that involves deposition of blood lipids in plaque in the arteries throughout the body. In coronary arteries, accumulation of plaque progressively leads to reduced coronary flow, with occlusion of the arteries causing focal death of cardiac tissue (myocardial infarction, heart attack). If the amount of tissue that dies is large enough, death ensures. In a Phase IIa trial, one compound believed to work by a mechanism shared by the compounds of the invention, 3-[2-phenyl-2-oxoethyl]-4,5-dimethyl-thiazolium salt, […] the amount of circulating triglycerides (lipids). […] Reducing local deposits of plaque should eventually lessen the risk of myocardial infarction and death due to heart attacks.
Pulse pressure is the difference between systolic and diastolic blood pressure. In a young human, systolic pressure is typically 120 mm Hg and diastolic pressure is 80 mm Hg, resulting in a pulse pressure of 40 mm Hg. With age, in many individuals pulse pressure increases, largely due to the increase in systolic pressure that results from stiff vessel disease. In individuals with pulse pressure greater than 60 mm Hg there is an increased risk of death from cardiovascular morbidities.

Molecule	glucose lowering effect [1]	end diastolic pressure and end diastolic volume, indicators of ventricular elasticity (dog model for diabetes)	mass of collagen in cardiovascular tissues ([2]; in vivo)	vascular stiffening ([2]; in vivo studies in rodents, canines and primates)	thickness of the ventricular wall in the infarcted zone (Rats; p=0.09 vs placebo) [mm]	weight of the infarcted tissue (Rats; placebo 0.16±0.04 g, p=0.04) [g]	expression of TGFbeta (TGFbeta)	expression of Type IV collagen (Type IV collagen)	stiffness of arteries, measured by the ratio of stroke volume (ml) to pulse pressure (mm Hg) ([3]; Phase IIa clinical trial)	amount of circulating triglycerides (lipids) ([3]; Phase IIa trial)	pulse pressure ([3]; Phase IIa trial, elderly patients with pulse pressures greater than 60 mm Hg, statistically significant)
3-[2-(3,5-Dimethoxyphenyl)-2-oxoethyl]-oxazolium	inactive										
Cc1sc[n+](CC(=O)c2ccccc2)c1C [compound A, 3-[2-phenyl-2-oxoethyl]-4,5-dimethyl-thiazolium salt]		returned to a value at about the mid-point between the disease impaired value and the value for control dogs	reduction	substantially ameliorating vascular stiffening	2.56±0.22	0.11 ± 0.05	reduces	reduces	reverse the stiffness of arteries	increased	reduced
